Experimental data published in paper PMC7525318, “Identification of Six Flavonoids as Novel Cellular Antioxidants and Their Structure-Activity Relationship” (Oxidative Medicine and Cellular Longevity, 2020).

Legend:
[1] = DPPH radical scavenging activity; settings: 0.1 mM DPPH in methanol, 37°C, 30 min
Procedure: This assay was conducted as previously described by Wen et al. with some modifications. DPPH was freshly prepared in methanol at a concentration of 0.1 mM. The solution (20 μL) containing the tested compounds with different concentrations was added into the DPPH solution (180 μL) in the 96-well plates. […] The IC50 value was calculated on the scavenging activity against DPPH radical.

[2] = system: HepG2 cells; experiment: Cellular antioxidant activity (CAA) assay; assay type: cell-based; settings: DCFH-DA 25 μM, ABAP 600 μM
Procedure: The CAA assay was tested as described previously. 6 × 10^4 cells/well of HepG2 cells were seeded at a 96-well microplate with 100 μL of growth medium/well. […] Then, the cells were washed with PBS and treated with 100 μL of 600 μM ABAP (dissolved in HBSS), and the 96-well microplate was immediately placed into an Infinite SpectraMax i3x Multi-Mode Detection plate-reader at 37°C. […]

[3] = Oxygen radical antioxidant capacity (ORAC) assay; settings: Trolox equivalents; AAPH, fluorescein
Procedure: The ORAC assay was evaluated as previously described by Cao et al. with some modifications. 50 μL of samples or Trolox with different concentrations and the fluorescein solution was added to a 96-well microplate, which was incubated at 37°C for 10 min. […] The ORAC values were calculated by the regression equation between the Trolox concentration and the net area under the curve (expressed as μmol Trolox eq/μmol sample).

Row | Molecule | IC50 [1] | EC50 ([2]; Homo sapiens) | ORAC values [3] | EC50 [2]
1 | COc1cc(-c2oc3cc(O)cc(O)c3c(=O)c2O)ccc1O [compound 1, Isorhamnetin] | 126 ± 4.26 µM | 23.3 ± 1.38 µM |  | 
2 | COc1ccc(-c2oc3cc(O)cc(O)c3c(=O)c2O)cc1 [compound 3, Kaempferide] | > 200 µM | > 30 µM |  | 
3 | O=c1c(O)c(-c2ccc(O)cc2O)oc2cc(O)cc(O)c12 [compound 4, Morin] | > 200 µM | 15.2 ± 0.32 µM | 5.98 ± 0.01 μmol TE/μmol | 
4 | O=c1c(O)c(-c2ccc(O)c(O)c2)oc2cc(O)cc(O)c12 [compound 7, Quercetin, reference compound] | 21.5 ± 1.9 µM | 8.77 ± 0.09 µM | 5.52 ± 0.04 μmol TE/μmol | 
5 | C[C@@H]1O[C@@H](OC[C@H]2O[C@@H](Oc3c(-c4ccc(O)c(O)c4)oc4cc(O)cc(O)c4c3=O)[C@H](O)[C@@H](O)[C@@H]2O)[C@H](O)[C@H](O)[C@H]1O [compound 16, Rutin] | 70 ± 1.44 µM | > 200 µM |  | 
6 | O=c1cc(-c2ccccc2)oc2cc(O)cc(O)c12 [compound 20, Chrysin] | > 200 µM | > 200 µM |  | 
7 | C[C@@H]1O[C@@H](Oc2c(-c3ccc(O)c(O)c3)oc3cc(O)cc(O)c3c2=O)[C@H](O)[C@H](O)[C@H]1O [compound 28, Quercitrin] | 68.3 ± 1.37 µM | > 200 µM |  | 
8 | O=c1cc(-c2ccc(O)cc2)oc2c([C@@H]3O[C@H](CO)[C@@H](O)[C@H](O)[C@H]3O)c(O)cc(O)c12 [compound 30, Vitexin] | > 200 µM | > 200 µM | 6.80 ± 0.42 μmol TE/μmol | 
9 | O=c1cc(-c2ccc(O)c(O)c2)oc2c([C@@H]3O[C@H](CO)[C@@H](O)[C@H](O)[C@H]3O)c(O)cc(O)c12 [compound 31, Orientin] | > 200 µM | > 200 µM |  | 
10 | O=c1cc(-c2ccc(O)cc2)oc2cc(O)c([C@@H]3O[C@H](CO)[C@@H](O)[C@H](O)[C@H]3O)c(O)c12 [compound 33, Isovitexin] | > 200 µM | > 200 µM |  | 
11 | O=c1c(O)c(-c2ccccc2)oc2cc(O)cc(O)c12 [compound 34, Galangin] | > 200 µM | 31.2 ± 0.86 µM |  | 
12 | O=c1c(O)c(-c2ccc(O)c(O)c2)oc2cc(O)ccc12 [compound 35, Fisetin] | 25.2 ± 0.62 µM | > 200 µM | 5.36 ± 0.21 μmol TE/μmol | 
13 | COc1ccc(-c2cc(=O)c3c(O)cc(O)cc3o2)cc1O [compound 36, Diosmetin] | > 200 µM | > 200 µM | 5.02 ± 0.14 μmol TE/μmol | 
14 | O=C1c2c(O)cc(O)cc2OC(c2ccc(O)c(O)c2)C1O (stereo not shown) [compound 39, Taxifolin] | 59.6 ± 3.12 µM | > 200 µM | 5.26 ± 0.04 μmol TE/μmol | 
15 | O=C1c2c(O)cc(O)cc2O[C@H](c2ccc(O)cc2O)[C@H]1O [compound 40, Dihydromorin] | > 200 µM | > 200 µM | 5.29 ± 0.05 μmol TE/μmol | 
16 | COc1ccc([C@@H]2CC(=O)c3c(O)cc(O[C@@H]4O[C@H](CO)[C@@H](O)[C@H](O)[C@H]4O[C@@H]4O[C@@H](C)[C@H](O)[C@@H](O)[C@H]4O)cc3O2)cc1O [compound 41, Neohesperidin] | > 200 µM |  |  | > 200 µM
17 | C[C@@H]1O[C@@H](OC[C@H]2O[C@@H](Oc3cc(O)c4c(c3)O[C@H](c3ccc(O)cc3)CC4=O)[C@H](O)[C@@H](O)[C@@H]2O)[C@H](O)[C@H](O)[C@H]1O [compound 42, Narirutin] | > 200 µM | > 200 µM |  | 
18 | COc1ccc([C@@H]2CC(=O)c3c(O)cc(O)cc3O2)cc1O [compound 43, Hesperetin] | > 200 µM | > 200 µM |  | 
19 | COc1ccc([C@@H]2CC(=O)c3c(O)cc(O[C@@H]4O[C@H](CO[C@@H]5O[C@@H](C)[C@H](O)[C@@H](O)[C@H]5O)[C@@H](O)[C@H](O)[C@H]4O)cc3O2)cc1O [compound 44, Hesperidin] | > 200 µM |  | 6.52 ± 0.15 μmol TE/μmol | > 200 µM
20 | O=C1C[C@@H](c2ccc(O)cc2)Oc2cc(O)ccc21 [compound 46, Liquiritigenin] | > 200 µM | > 200 µM |  | 
21 | O=C(CCc1ccc(O)cc1)c1c(O)cc(O)cc1O [compound 48, Phloretin] | > 200 µM | 30.96 ± 0.2 µM |  | 
22 | Oc1cc(O)c2cc(O)c(-c3ccc(O)c(O)c3)[o+]c2c1 [compound 51, Cyanidin chloride] | 70.8 ± 2.31 µM | 19.16 ± 0.16 µM | 5.71 ± 0.03 μmol TE/μmol | 
23 | Oc1cc(O)c2cc(O)c(-c3cc(O)c(O)c(O)c3)[o+]c2c1 [compound 52, Delphinidin chloride] | 36.8 ± 4.26 µM | 24.91 ± 0.12 µM | 5.02 ± 0.02 μmol TE/μmol | 
24 | OCC1OC(Oc2cc3c(OC4OC(CO)C(O)C(O)C4O)cc(O)cc3[o+]c2-c2ccc(O)c(O)c2)C(O)C(O)C1O (stereo not shown) [compound 53, Cyanin chloride] | > 200 µM | > 200 µM |  | 
25 | OCC1OC(Oc2cc3c(OC4OC(CO)C(O)C(O)C4O)cc(O)cc3[o+]c2-c2ccc(O)cc2)C(O)C(O)C1O (stereo not shown) [compound 55, Pelargonin chloride] | > 200 µM | > 200 µM |  | 
26 | Myricitrin [compound 9] | 50.9 ± 2.14 µM |  |  | > 200 µM
27 | Quercetin-3-O-rhamnoside [compound 27] | 47.7 µM |  |  | 22.8 µM

Further lines, with some results ahead:

Row | IC50 [1] | EC50 ([2]; Homo sapiens) | Molecule | ORAC values [3] | EC50 [2]
28 | > 200 µM | 11 ± 0.25 µM | O=c1c(O)c(-c2ccc(O)cc2)oc2cc(O)cc(O)c12 [compound 6, Kaempferol] | 4.17 ± 0.06 μmol TE/μmol | 
29 | 45.1 ± 2.12 µM | > 200 µM | O=c1c(O[C@@H]2O[C@H](CO)[C@H](O)[C@H](O)[C@H]2O)c(-c2ccc(O)cc2)oc2cc(O)cc(O)c12 [compound 11, Trifolin] | 2.06 ± 0.01 μmol TE/μmol | 
30 | > 200 µM | > 200 µM | O=c1c(O)c(-c2ccc(OC3O[C@H](CO)[C@@H](O)[C@H](O)[C@H]3O)cc2)oc2cc(O)cc(O)c12 (stereo partly shown) [compound 12, Kaempferol-4′-O-glucopyranoside] |  | 
31 | > 200 µM | > 200 µM | O=c1c(O)c(-c2ccc(O[C@@H]3O[C@H](CO)[C@@H](O)[C@H](O)[C@H]3O)c(O)c2)oc2cc(O)cc(O)c12 [compound 17, Spiraeoside] |  | 
32 | 21.3 ± 1.33 µM | 26.7 ± 1.04 µM | O=c1c(O)c(-c2cc(O)c(O)c(O)c2)oc2cc(O)cc(O)c12 [compound 18, Myricetin] | 6.64 ± 0.03 μmol TE/μmol | 
33 | > 200 µM | > 200 µM | COc1ccc(-c2cc(=O)c3c(OC)c(OC)c(OC)c(OC)c3o2)cc1 [compound 19, Tangeretin] |  | 
34 | > 200 µM | 42.5 ± 0.24 µM | O=c1cc(-c2ccccc2)oc2cc(O)c(O)c(O)c12 [compound 21, Baicalein] |  | 
35 | > 200 µM | > 200 µM | O=c1cc(-c2ccc(O)cc2)oc2cc(O)cc(O)c12 [compound 22, Apigenin] | 4.27 ± 0.02 μmol TE/μmol | 
36 | 73.2 ± 0.75 µM | 18.6 ± 0.61 µM | O=c1cc(-c2ccc(O)c(O)c2)oc2cc(O)cc(O)c12 [compound 23, Luteolin] | 4.27 ± 0.02 μmol TE/μmol | 
37 | 82.4 ± 2.88 µM | > 200 µM | O=c1c(OC2OC(CO)C(O)C(O)C2O)c(-c2cc(O)c(O)c(O)c2)oc2cc(O)cc(O)c12 (stereo not shown) [compound 25, Myricetin-3-O-galactoside] |  | 
38 | 53.3 µM | 45.9 µM | O=c1c(OC2OC(CO)C(O)C(O)C2O)c(-c2ccc(O)c(O)c2)oc2cc(O)cc(O)c12 (stereo not shown) [compound 26, Quercetin-3-O-galactoside] | 4.05 ± 0.15 μmol TE/μmol | 
39 | > 200 µM | > 200 µM | O=c1c(O[C@@H]2O[C@H](CO)[C@@H](O)[C@H](O)[C@H]2O)c(-c2ccc(O)c(O)c2)oc2cc(O)cc(O)c12 [compound 29, Isoquercitrin] |  | 
40 | > 200 µM | > 200 µM | COc1cc(O)c2c(=O)cc(-c3ccc(O)cc3)oc2c1 [compound 37, Genkwanin] |  | 
41 | > 200 µM | > 200 µM | O=C1c2c(O)cc(O)cc2O[C@H](c2cc(O)c(O)c(O)c2)[C@H]1O [compound 38, Dihydromyricetin] | 5.25 ± 0.02 μmol TE/μmol | 
42 | > 200 µM | > 200 µM | O=C1C[C@@H](c2ccc(O)cc2)Oc2cc(O)cc(O)c21 [compound 45, Naringenin] | 4.62 ± 0.13 μmol TE/μmol | 
43 | > 200 µM | > 200 µM | COc1ccc(CCC(=O)c2c(O)cc(O[C@@H]3O[C@H](CO)[C@@H](O)[C@H](O)[C@H]3O[C@@H]3O[C@@H](C)[C@H](O)[C@@H](O)[C@H]3O)cc2O)cc1O [compound 47, Neohesperidin dihydrochalcone] | 4.31 ± 0.01 μmol TE/μmol | 
44 | > 200 µM | > 200 µM | O=C(CCc1ccc(O)cc1)c1c(O)cc(O)cc1O[C@@H]1O[C@H](CO)[C@@H](O)[C@H](O)[C@H]1O [compound 49, Phlorizin] | 6.43 ± 0.14 μmol TE/μmol | 
45 |  | > 200 µM | O=C(/C=C/c1ccc(O)cc1)c1ccc(O)cc1O [compound 50, Isoliquiritigenin] |  | 
46 | > 200 µM |  | OC[C@H]1O[C@@H](Oc2cc3c(O)cc(O)cc3[o+]c2-c2ccc(O)c(O)c2)[C@H](O)[C@@H](O)[C@@H]1O.[Cl-] [compound 54, Cyanidin-3-O-glucoside chloride] | 4.63 ± 0.14 μmol TE/μmol | 43.8 µM
